From patent US12448389B2, “BRM targeting compounds and associated methods of use” (Prelude Therapeutics Incorporated, priority 2020, dated 2025)

Legend:
SMARCA2-HiBiT = target: T1, SMARCA2-HiBiT (Homo sapiens, UniProt P51531); assay: SMARCA2 HiBiT degradation assay in HeLa cells; assay type: cell-based; settings: 18 hours incubation; for DC50: read-out: HeLa_HiBit-SM2 DC50; for Dmax: HeLa, read-out: HeLa-HiBit-SM2 Dmax (%)
T1 construct: SMARCA2-HiBiT knock-in Hela monoclonal cell (CS302366); host or cells: HeLa monoclonal knock-in line (CRISPR HiBiT knock-in at the endogenous locus, heterozygous)
T1 sequence (P51531 whole entry): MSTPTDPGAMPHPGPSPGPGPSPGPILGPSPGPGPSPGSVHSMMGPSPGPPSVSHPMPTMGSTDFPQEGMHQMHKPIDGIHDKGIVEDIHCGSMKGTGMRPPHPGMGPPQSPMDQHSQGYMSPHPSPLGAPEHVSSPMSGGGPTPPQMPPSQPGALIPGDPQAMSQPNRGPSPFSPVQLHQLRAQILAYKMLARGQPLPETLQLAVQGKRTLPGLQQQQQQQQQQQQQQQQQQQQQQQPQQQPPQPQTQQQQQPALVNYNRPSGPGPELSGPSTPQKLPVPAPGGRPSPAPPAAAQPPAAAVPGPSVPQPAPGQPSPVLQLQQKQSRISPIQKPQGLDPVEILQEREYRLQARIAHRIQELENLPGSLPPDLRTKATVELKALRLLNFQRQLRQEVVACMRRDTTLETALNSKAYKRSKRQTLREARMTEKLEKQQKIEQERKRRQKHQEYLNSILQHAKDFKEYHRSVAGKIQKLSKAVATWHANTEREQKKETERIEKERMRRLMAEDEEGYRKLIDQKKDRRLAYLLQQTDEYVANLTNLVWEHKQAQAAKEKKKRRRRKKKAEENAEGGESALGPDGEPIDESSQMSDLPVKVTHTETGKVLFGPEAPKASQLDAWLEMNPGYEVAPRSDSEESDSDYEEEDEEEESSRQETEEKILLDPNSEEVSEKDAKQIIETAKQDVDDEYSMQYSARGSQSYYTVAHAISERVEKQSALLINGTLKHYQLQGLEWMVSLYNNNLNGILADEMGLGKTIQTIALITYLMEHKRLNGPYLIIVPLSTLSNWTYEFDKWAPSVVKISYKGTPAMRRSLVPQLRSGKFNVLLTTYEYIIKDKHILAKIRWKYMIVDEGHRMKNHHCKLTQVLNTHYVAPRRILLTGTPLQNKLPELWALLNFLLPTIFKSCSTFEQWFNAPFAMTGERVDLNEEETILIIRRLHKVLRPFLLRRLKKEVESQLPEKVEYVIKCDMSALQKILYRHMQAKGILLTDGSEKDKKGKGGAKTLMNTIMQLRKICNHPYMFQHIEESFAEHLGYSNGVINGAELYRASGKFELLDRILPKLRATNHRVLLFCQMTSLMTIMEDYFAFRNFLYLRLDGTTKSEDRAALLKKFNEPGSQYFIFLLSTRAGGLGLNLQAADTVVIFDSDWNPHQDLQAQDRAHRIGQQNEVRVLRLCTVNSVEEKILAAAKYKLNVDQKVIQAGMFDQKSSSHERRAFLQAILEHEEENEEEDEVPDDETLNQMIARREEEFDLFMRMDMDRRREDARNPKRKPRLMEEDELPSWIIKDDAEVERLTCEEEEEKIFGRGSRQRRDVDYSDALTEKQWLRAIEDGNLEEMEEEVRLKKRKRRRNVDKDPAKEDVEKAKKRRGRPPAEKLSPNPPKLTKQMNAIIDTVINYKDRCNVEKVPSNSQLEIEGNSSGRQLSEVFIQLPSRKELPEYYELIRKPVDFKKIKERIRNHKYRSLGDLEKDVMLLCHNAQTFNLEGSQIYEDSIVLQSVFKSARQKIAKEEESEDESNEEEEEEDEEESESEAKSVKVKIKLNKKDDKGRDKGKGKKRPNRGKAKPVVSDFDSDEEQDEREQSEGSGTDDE
Outline: (§1)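 HeLa monoclonal lines with heterozygous HiBiT knock-in were seeded at 2500 cells/well in EMEM with 10% FBS and treated with compound for 18 h at 37 °C. Remaining tagged protein was measured by Nano-Glo HiBiT lytic luminescence after 30–60 min at RT, and values came from curve fitting.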

SMARCA4-HiBiT = target: T2, SMARCA4-HiBiT (Homo sapiens, UniProt P51532); assay: SMARCA4 HiBiT degradation assay in HeLa cells; assay type: cell-based; settings: 18 hours incubation; for DC50: read-out: HeLa-HiBit-SM4 DC50; for Dmax: HeLa, read-out: HeLa-HiBit-SM4 Dmax (%)
T2 construct: SMARCA4-HiBiT knock-in Hela monoclonal cell (CS3023226); host or cells: HeLa monoclonal knock-in line (CRISPR HiBiT knock-in at the endogenous locus, heterozygous)
T2 sequence (P51532 whole entry): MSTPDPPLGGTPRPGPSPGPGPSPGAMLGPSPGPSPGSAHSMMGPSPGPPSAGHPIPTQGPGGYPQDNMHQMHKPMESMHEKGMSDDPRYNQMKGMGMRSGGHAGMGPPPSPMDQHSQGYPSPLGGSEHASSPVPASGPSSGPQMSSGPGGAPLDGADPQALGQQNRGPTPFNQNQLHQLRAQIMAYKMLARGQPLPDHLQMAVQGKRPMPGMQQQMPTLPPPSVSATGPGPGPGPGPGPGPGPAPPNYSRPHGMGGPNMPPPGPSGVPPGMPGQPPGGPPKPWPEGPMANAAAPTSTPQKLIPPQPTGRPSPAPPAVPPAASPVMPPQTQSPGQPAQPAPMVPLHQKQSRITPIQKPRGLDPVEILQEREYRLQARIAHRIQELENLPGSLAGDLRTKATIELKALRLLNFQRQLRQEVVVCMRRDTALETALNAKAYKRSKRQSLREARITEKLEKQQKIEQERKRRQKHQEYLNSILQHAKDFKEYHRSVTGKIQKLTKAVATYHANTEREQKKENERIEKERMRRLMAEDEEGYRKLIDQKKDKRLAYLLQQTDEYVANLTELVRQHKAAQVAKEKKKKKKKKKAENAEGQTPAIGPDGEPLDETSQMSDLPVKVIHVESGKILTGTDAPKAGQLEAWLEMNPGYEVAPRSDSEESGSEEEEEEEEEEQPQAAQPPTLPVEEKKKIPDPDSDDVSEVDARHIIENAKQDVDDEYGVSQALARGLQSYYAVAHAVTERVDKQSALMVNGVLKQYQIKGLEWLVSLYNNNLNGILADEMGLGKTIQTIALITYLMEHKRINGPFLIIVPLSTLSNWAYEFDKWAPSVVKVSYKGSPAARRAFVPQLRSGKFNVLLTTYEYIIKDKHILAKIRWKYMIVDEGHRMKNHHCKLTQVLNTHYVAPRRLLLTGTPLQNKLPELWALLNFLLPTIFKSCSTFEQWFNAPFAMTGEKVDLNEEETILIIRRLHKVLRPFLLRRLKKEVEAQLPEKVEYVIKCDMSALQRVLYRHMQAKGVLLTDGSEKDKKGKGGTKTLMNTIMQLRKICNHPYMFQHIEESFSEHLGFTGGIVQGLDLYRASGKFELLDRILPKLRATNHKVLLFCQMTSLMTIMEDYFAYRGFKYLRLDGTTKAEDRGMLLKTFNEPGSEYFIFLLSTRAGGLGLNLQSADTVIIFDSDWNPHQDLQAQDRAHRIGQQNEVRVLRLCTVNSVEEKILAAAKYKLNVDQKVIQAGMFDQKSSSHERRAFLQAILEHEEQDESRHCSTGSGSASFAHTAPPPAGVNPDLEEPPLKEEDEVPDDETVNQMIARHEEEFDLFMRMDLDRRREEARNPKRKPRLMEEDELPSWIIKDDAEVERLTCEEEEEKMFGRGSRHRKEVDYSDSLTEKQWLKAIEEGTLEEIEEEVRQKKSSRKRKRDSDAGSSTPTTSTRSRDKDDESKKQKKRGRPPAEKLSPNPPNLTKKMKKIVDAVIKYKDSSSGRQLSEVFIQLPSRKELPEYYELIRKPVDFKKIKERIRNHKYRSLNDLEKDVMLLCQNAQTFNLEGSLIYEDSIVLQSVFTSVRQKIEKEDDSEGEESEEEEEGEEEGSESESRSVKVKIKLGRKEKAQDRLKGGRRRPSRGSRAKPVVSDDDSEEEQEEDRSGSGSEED
Outline: as §1

Structure (SMILES)	DC50 (SMARCA2-HiBiT)	Dmax (SMARCA2-HiBiT)	DC50 (SMARCA4-HiBiT)	Dmax (SMARCA4-HiBiT)
CC1CN(CCCC2CCN(c3cccc4c3C(=O)N(C3CCC(=O)NC3=O)C4=O)CC2)CCC1N1CCN2c3cc(-c4ccccc4O)nnc3NC[C@H]2C1 (stereo partly drawn) [Example 124, 2-(2,6-dioxopiperidin-3-yl)-4-(4-(3-(4-((S)-2-(2-hydroxyphenyl)-5,6,6a,7,9,10-hexahydro-811-pyrazino[1′,2′:4,5]pyrazino[2,3-c]pyridazin-8-yl)-3-methylpiperidin-1-yl)propyl)piperidin-1-yl) isoindoline-1,3-dione]	< 10 nM	50 to 75%	< 10 nM	50 to 75%
O=C1CCC(N2Cc3ccc(N4CCC(CN5CCN(C(=O)N6CCN7c8cc(-c9ccccc9O)nnc8NC[C@H]7C6)C(CO)C5)CC4)cc3C2=O)C(=O)N1 (stereo partly drawn) [Example 110, 3-(6-(4-((3-(hydroxymethyl)-4-((S)-2-(2-hydroxyphenyl)-6,6a,7,8,9,10-hexahydro-5H-pyrazino[1′,2′:4,5]pyrazino[2,3-c]pyridazine-8-carbonyl)piperazin-1-yl)methyl)piperidin-1-yl)-1-oxoisoindolin-2-yl)piperidine-2,6-dione]	< 10 nM	> 85%	10 to 100 nM	75 to 85%
O=C1CCC(N2Cc3cc(OCCCN4CCC(N5CCN6c7cc(-c8ccccc8O)nnc7NC[C@H]6C5)CC4)ccc3C2=O)C(=O)N1 (stereo partly drawn) [Example 237, 3-(5-(3-(4-((S)-2-(2-hydroxyphenyl)-5,6,6a,7,9,10-hexahydro-8H-pyrazino[1′,2′:4,5]pyrazino[2,3-c]pyridazin-8-yl)piperidin-1-yl)propoxy)-1-oxoisoindolin-2-yl)piperidine-2,6-dione]	< 10 nM	> 85%	< 10 nM	75 to 85%

More lines, now with the values ahead:

DC50 (SMARCA2-HiBiT)	Dmax (SMARCA2-HiBiT)	DC50 (SMARCA4-HiBiT)	Dmax (SMARCA4-HiBiT)	Structure (SMILES)
< 10 nM	> 85%	10 to 100 nM	75 to 85%	O=C1CCC(N2Cc3ccc(N4CC[C@H](CN5CCC(C(=O)N6CCN7c8cc(-c9ccccc9O)nnc8NC[C@H]7C6)CC5)[C@@H](F)C4)cc3C2=O)C(=O)N1 (stereo partly drawn) [Example 261, 3-(6-((3R,4R)-3-fluoro-4-((4-((S)-2-(2-hydroxyphenyl)-6,6a,7,8,9,10-hexahydro-5H-pyrazino[1′,2′:4,5]pyrazino[2,3-c]pyridazine-8-carbonyl)piperidin-1-yl)methyl)piperidin-1-yl)-1-oxoisoindolin-2-yl)piperidine-2,6-dione]
< 10 nM	> 85%	< 10 nM	50 to 75%	O=C1CCC(N2C(=O)c3ccc(N4CCC(CN5C[C@@H]6[C@H](C5)[C@@H]6CN5CCN6c7cc(-c8ccccc8O)nnc7NC[C@H]6C5)CC4)cc3C2=O)C(=O)N1 (stereo partly drawn) [Example 43, 2-(2,6-dioxopiperidin-3-yl)-5-(4-(((1R,5S,6s)-6-(((S)-2-(2-hydroxyphenyl)-5,6,6a,7,9,10-hexahydro-8H-pyrazino[1′,2′:4,5]pyrazino[2,3-c]pyridazin-8-yl)methyl)-3-azabicyclo[3.1.0]hexan-3-yl)methyl)piperidin-1-yl)isoindoline-1,3-dione]
< 10 nM	> 85%	< 10 nM	> 85%	O=C1CCC(N2C(=O)c3cccc(N4CCN(CCCN5CCC(N6CCN7c8cc(-c9ccccc9O)nnc8NC[C@H]7C6)CC5)CC4)c3C2=O)C(=O)N1 (stereo partly drawn) [Example 69, 2-(2,6-dioxopiperidin-3-yl)-4-(4-(3-(4-((S)-2-(2-hydroxyphenyl)-5,6,6a,7,9,10-hexahydro-8H-pyrazino[1′,2′:4,5]pyrazino[2,3-c]pyridazin-8-yl)piperidin-1-yl)propyl)piperazin-1-yl)isoindoline-1,3-dione]
< 10 nM	75 to 85%	< 10 nM	50 to 75%	O=C1CCC(N2C(=O)c3ccc(N4CCC(CN5CC6CC6(CN6CCN7c8cc(-c9ccccc9O)nnc8NC[C@H]7C6)C5)CC4)cc3C2=O)C(=O)N1 (stereo partly drawn) [Example 172, 2-(2,6-dioxopiperidin-3-yl)-5-[4-[[1-[[(10S)-4-(2-hydroxyphenyl)-1,5,6,8,12-pentazatricyclo[8.4.0.02,7]tetradeca-2,4,6-trien-12-yl]methyl]-3-azabicyclo[3.1.0]hexan-3-yl]methyl]piperidin-1-yl]isoindole-1,3-dione]
